One test concerns the target T1, ATR kinase (Homo sapiens, UniProt Q13535).
T1 construct: Assays were carried out at 25° C. in the presence of 5 nM full-length ATR
The test can be described thus: ATR Inhibition Assay (radioactive-phosphate incorporation). In kind it is biochemical. How it is done: Compounds were screened for their ability to inhibit ATR kinase using a radioactive-phosphate incorporation assay. Assays were carried out in a mixture of 50 mM Tris/HCl (pH 7.5), 10 mM MgCl2 and 1 mM DTT. Final substrate concentrations were 10 μM [γ-33P]ATP (3mCi 33P ATP/mmol ATP, Perkin Elmer) and 800 μM target peptide ([…] (SEQ. ID NO: 1)).
Assays were carried out at 25° C. in the presence of 5 nM full-length ATR. An assay stock buffer solution was prepared containing all of the reagents listed above, with the exception of ATP and the test compound of interest. 13.5 μL of the stock solution was placed in a 96 well plate followed by addition of 2 μL of DMSO stock containing serial dilutions of the test compound (typically starting from a final concentration of 15 μM with 3-fold serial dilutions) in duplicate (final DMSO concentration 7%). The plate was pre-incubated for 10 minutes at 25° C. and the reaction initiated by addition of 15 μL [γ-33P]ATP (final concentration 10 μM).
The reaction was stopped after […] by the addition of 30 μL 0.1M phosphoric acid containing 2 mM ATP. A multiscreen phosphocellulose filter 96-well plate (Millipore, Cat no. MAPHN0B50) was pretreated with 100 μL 0.2M phosphoric acid prior to the addition of 45 μL of the stopped assay mixture. The plate was washed with 5×200 μL 0.2M phosphoric acid. After drying, 100 μL Optiphase ‘SuperMix’ liquid scintillation cocktail (Perkin Elmer) was added to the well prior to scintillation counting (1450 Microbeta Liquid Scintillation Counter, Wallac).
After removing mean background values for all of the data points, Ki(app) data were calculated from non-linear regression analysis of the initial rate data using the Prism software package (GraphPad Prism version 3.0cx for Macintosh, GraphPad Software, San Diego Calif., USA).

Test [1] concerns HCT116 colorectal cancer cells. The test can be described thus: Cisplatin Sensitization Assay (96 h cell viability MTS). In kind it is cell-based. The note with it: concentration of compound required to reduce the IC50 of Cisplatin alone by at least 3-fold; HCT116, 96 h MTS. How it is done:
Compounds can be screened for their ability to sensitize HCT116 colorectal cancer cells to Cisplatin using a 96 h cell viability (MTS) assay. […] Compounds and Cisplatin are then both added simultaneously to the cell media in 2-fold serial dilutions from a top final concentration of 10 μM as a full matrix of concentrations in a final cell volume of 200 μl, and the cells are then incubated at 37° C. in 5% CO2. After 96 h, 40 μl of MTS reagent (Promega G358a) is added to each well and the cells are incubated for 1 h at 37° C. in 5% CO2.

We go through 20 compounds from patent US8969356B2, “Compounds useful as inhibitors of ATR kinase” (Vertex Pharmaceuticals Incorporated, priority 2010, dated 2015).

Each structure is given as a SMILES string.

T1 sequence (Q13535 whole entry): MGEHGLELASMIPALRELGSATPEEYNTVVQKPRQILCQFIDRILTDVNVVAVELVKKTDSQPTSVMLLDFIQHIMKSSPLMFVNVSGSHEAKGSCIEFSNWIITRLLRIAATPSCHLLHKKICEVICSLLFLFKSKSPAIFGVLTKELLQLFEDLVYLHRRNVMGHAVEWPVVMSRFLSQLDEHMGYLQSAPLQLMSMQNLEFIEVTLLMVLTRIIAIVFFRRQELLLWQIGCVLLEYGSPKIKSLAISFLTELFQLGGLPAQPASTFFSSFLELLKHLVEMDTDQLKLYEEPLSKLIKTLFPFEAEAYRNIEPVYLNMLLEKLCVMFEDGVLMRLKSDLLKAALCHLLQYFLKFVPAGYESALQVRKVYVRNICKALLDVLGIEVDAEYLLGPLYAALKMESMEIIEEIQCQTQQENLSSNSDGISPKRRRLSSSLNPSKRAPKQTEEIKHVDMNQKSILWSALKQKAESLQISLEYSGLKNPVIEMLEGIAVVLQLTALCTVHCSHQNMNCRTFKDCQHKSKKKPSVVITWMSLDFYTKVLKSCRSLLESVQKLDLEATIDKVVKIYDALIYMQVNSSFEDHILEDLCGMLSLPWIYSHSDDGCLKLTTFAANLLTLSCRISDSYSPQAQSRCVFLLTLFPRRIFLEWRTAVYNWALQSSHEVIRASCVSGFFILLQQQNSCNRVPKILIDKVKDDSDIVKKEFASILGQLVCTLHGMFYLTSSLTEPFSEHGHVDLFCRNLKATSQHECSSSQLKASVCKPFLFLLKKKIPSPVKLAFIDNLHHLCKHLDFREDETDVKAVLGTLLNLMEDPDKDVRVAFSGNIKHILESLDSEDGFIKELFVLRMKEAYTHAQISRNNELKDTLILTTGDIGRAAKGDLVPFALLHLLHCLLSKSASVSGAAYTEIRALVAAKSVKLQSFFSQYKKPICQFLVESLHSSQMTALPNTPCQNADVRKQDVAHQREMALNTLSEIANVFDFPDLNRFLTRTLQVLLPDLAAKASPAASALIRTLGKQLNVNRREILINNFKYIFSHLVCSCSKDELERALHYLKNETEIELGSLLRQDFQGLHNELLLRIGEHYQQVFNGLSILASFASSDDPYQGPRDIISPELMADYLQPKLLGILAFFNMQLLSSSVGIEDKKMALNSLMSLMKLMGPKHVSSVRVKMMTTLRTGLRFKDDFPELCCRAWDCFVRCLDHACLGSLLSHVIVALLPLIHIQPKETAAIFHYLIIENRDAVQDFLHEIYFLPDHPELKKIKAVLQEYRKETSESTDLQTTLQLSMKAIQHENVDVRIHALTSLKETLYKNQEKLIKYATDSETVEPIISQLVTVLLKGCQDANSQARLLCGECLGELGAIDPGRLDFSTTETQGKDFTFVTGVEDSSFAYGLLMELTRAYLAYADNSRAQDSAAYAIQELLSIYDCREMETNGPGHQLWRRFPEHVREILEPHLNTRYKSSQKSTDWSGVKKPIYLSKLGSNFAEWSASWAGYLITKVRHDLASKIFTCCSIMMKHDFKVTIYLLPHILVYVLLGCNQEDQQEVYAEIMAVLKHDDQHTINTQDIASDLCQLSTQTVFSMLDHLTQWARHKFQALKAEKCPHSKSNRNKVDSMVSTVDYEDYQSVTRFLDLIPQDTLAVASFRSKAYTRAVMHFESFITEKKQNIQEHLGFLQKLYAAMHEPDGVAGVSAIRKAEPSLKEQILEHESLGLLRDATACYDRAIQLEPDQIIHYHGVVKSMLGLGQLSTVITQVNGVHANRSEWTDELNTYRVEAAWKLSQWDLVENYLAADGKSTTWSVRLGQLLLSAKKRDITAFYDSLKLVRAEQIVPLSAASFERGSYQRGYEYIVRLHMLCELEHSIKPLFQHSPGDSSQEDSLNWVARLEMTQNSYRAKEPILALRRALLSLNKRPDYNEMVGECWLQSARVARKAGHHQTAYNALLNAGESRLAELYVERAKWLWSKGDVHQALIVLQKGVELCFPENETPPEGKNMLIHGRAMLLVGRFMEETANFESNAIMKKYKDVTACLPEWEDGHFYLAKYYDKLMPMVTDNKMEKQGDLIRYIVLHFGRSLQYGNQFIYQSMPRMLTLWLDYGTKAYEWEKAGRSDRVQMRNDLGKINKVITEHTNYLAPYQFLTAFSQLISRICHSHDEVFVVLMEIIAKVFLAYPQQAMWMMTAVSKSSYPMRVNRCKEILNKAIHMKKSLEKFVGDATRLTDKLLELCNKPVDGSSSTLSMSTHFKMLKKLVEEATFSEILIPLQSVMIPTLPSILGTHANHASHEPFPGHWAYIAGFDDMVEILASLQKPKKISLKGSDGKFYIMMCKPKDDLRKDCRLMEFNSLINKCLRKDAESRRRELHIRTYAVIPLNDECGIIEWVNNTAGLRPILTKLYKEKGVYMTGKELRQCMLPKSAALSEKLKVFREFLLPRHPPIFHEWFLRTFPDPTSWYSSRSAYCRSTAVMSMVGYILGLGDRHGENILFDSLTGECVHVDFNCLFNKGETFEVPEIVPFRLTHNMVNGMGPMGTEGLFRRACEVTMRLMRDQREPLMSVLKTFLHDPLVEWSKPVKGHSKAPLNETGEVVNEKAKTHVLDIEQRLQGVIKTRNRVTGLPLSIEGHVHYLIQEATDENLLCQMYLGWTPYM

As for `CC(C)S(=O)(=O)c1ccc(-c2cnc(N)c(C#Cc3cccc(O)c3)n2)cc1` [Compound I-35, 3-[2-[3-Amino-6-(4-isopropylsulfonylphenyl)pyrazin-2-yl]ethynyl]phenol], the Ki on ATR kinase was at most 100 nM. The “CP3 Shift” value in test [1] amounted to 0.118 µM.
`CC(C)S(=O)(=O)c1ccc(-c2cnc(N)c(C#Cc3ccccc3F)n2)cc1` [Compound I-40, 3-((2-fluorophenyl)ethynyl)-5-(4-(isopropylsulfonyl)phenyl)pyrazin-2-amine]: the inhibitory constant (Ki) at ATR kinase is at most 100 nM. For the same compound, the “CP3 Shift” value in test [1] worked out at 2.5 µM.
Regarding `CC(C)S(=O)(=O)c1ccc(-c2cnc(N)c(C#Cc3cccc(N)c3)n2)cc1` [Compound I-21, 3-[2-(3-Aminophenyl)ethynyl]-5-(4-isopropylsulfonylphenyl)pyrazin-2-amine], the inhibition constant Ki on ATR kinase is at most 100 nM. Also, in test [1], the “CP3 Shift” value is 0.312 µM.
`CC(C)S(=O)(=O)c1ccc(-c2cnc(N)c(C#Cc3cccs3)n2)cc1` [Compound I-22, 5-(4-Isopropylsulfonylphenyl)-3-[2-(2-thienyl)ethynyl]pyrazin-2-amine]: the inhibition constant (Ki) at ATR kinase is at most 100 nM. Further, the “CP3 Shift” value in test [1] is 1.25 µM.
With `CC(C)S(=O)(=O)c1ccc(-c2cnc(N)c(C#Cc3ccc(C#N)cc3)n2)cc1` [Compound I-15, 4-[2-[3-Amino-6-(4-isopropylsulfonylphenyl)pyrazin-2-yl]ethynyl]benzonitrile], the Ki on ATR kinase lay within 1000 to 13000 nM.
Take `CC(C)S(=O)(=O)c1ccc(-c2cnc(N)c(C#Cc3cccc(OCCCN(C)C)c3)n2)cc1` [Compound I-20, 3-[2-[3-[3-(Dimethylamino)propoxy]phenyl]ethynyl]-5-(4-isopropylsulfonylphenyl)pyrazin-2-amine]: on ATR kinase, the Ki was at most 100 nM.
Take `CC(C)S(=O)(=O)c1ccc(-c2cnc(N)c(C#Cc3cccc(C(N)=O)c3)n2)cc1` [Compound I-37, 3-[2-[3-Amino-6-(4-isopropylsulfonylphenyl)pyrazin-2-yl]ethynyl]benzamide]: the Ki on ATR kinase is at most 100 nM.
`CC(C)S(=O)(=O)c1ccc(-c2cnc(N)c(C#Cc3cccc(F)c3)n2)cc1` [Compound I-1, 3-[2-(3-Fluorophenyl)ethynyl]-5-(4-isopropylsulfonylphenyl)pyrazin-2-amine]: on ATR kinase, the Ki was at most 100 nM.
Take `Nc1ncc(-c2ccc(S(=O)(=O)C3CCOCC3)cc2)nc1C#Cc1cccc(O)c1` [Compound I-34, 3-[2-[3-Amino-6-(4-tetrahydropyran-4-ylsulfonylphenyl)pyrazin-2-yl]ethynyl]phenol]: on ATR kinase, the Ki was at most 100 nM. Further, in test [1], the “CP3 Shift” value worked out at 0.079 µM.
On to `CC(C)S(=O)(=O)c1ccc(-c2cnc(N)c(C#Cc3ccccc3)n2)cc1` [Compound I-7, 5-(4-Isopropylsulfonylphenyl)-3-(2-phenylethynyl)pyrazin-2-amine], for which, on ATR kinase, the Ki is at most 100 nM. Further, in test [1], the “CP3 Shift” value turned out to be 2.5 µM.
Regarding `C[S+]([O-])c1ccccc1-c1cnc(N)c(C#Cc2cccc(O)c2)n1` (stereo not drawn) [Compound I-23, 3-[2-[3-Amino-6-(2-methylsulfinylphenyl)pyrazin-2-yl]ethynyl]phenol], the inhibition constant (Ki) at ATR kinase was at most 100 nM.
As to `CCC(=O)N1CC=C(c2cnc(N)c(C#Cc3cccc(O)c3)n2)CC1` [Compound I-30, 1-[4-[5-Amino-6-[2-(3-hydroxyphenyl)ethynyl]pyrazin-2-yl]-3,6-dihydro-2H-pyridin-1-yl]propan-1-one], at ATR kinase, the Ki was at most 100 nM.
Regarding `Cc1cccc(C#Cc2nc(-c3ccc(S(=O)(=O)C(C)C)cc3)cnc2N)c1` [Compound I-11, 5-(4-Isopropylsulfonylphenyl)-3-[2-(m-tolyl)ethynyl]pyrazin-2-amine], the Ki at ATR kinase is at most 100 nM.
For `CC(C)S(=O)(=O)c1ccc(-c2cnc(N)c(C#CC3CC3)n2)cc1` [Compound I-27, 3-(2-Cyclopropylethynyl)-5-(4-isopropylsulfonylphenyl)pyrazin-2-amine], the Ki on ATR kinase lay in the range of 100 to 1000 nM.
Regarding `C#Cc1nc(-c2ccc(S(=O)(=O)C(C)C)cc2)cnc1N` [Compound I-5, 3-Ethynyl-5-(4-isopropylsulfonylphenyl)pyrazin-2-amine], the Ki at ATR kinase was in the range of 100 to 1000 nM.
On to `CC(C)S(=O)(=O)c1ccc(-c2cnc(N)c(C#Cc3ccsc3)n2)cc1` [Compound I-31, 5-(4-Isopropylsulfonylphenyl)-3-[2-(3-thienyl)ethynyl]pyrazin-2-amine], for which, at ATR kinase, the Ki lay in the range of 100 to 1000 nM.
As to `CC(C)S(=O)(=O)c1ccc(-c2cnc(N)c(C#Cc3ccccc3Cl)n2)cc1` [Compound I-12, 3-[2-(2-Chlorophenyl)ethynyl]-5-(4-isopropylsulfonylphenyl)pyrazin-2-amine], the Ki on ATR kinase was at most 100 nM.
For the compound `CC(C)S(=O)(=O)c1ccc(-c2cnc(N)c(C#Cc3ccc4[nH]ncc4c3)n2)cc1` [Compound I-45, 3-((1H-indazol-5-yl)ethynyl)-5-(4-(isopropylsulfonyl)phenyl)pyrazin-2-amine], the Ki at ATR kinase was at most 100 nM.
As for `CC(C)n1cc(-c2cnc(N)c(C#Cc3cccc(O)c3)n2)ccc1=O` [Compound I-16, 5-[5-Amino-6-[2-(3-hydroxyphenyl)ethynyl]pyrazin-2-yl]-1-isopropyl-pyridin-2-one], the Ki at ATR kinase was at most 100 nM.
Regarding `CC(C)S(=O)(=O)c1ccc(-c2cnc(N)c(C#Cc3ccccn3)n2)cc1` [Compound I-33, 5-(4-Isopropylsulfonylphenyl)-3-[2-(2-pyridyl)ethynyl]pyrazin-2-amine], at ATR kinase, the Ki is at most 100 nM. Further, the “CP3 Shift” value in test [1] is 2.5 µM.
